Consider nine compounds from US20240417410A1, “TRICYCLIC COMPOUNDS FOR THE TREATMENT OF CANCER” (Hoffmann-La Roche Inc., priority 2023, published 2024).

In general, IC50 refers to the concentration at which inhibition is half-maximal. Low readings indicate higher potency, high ones lower potency.

Experiment [1] deals with phosphorylation of ERK, KRAS G12V in SW620. As to the kind of experiment: pERK inhibition assay. Type of experiment: cell-based. Conditions: Homo sapiens, SW-620, 4 h, SW620 cells. How it is done:
(§1) This assay is to measure the ability of test compounds in inhibiting the phosphorylation of ERK, the downstream signaling of KRAS G12C in NCI-H358 cells, KRAS G12D in AGS cells, and KRAS G12V in SW620. NCI-H358 (ATCC-CRL5807) cells, AGS (ATCC-CRL-1739) cells, SW620 (ATCC-CCL-227) cells were all grown and maintained using RPMI-1640 medium (Thermo Fisher Scientific) with 10% fetal bovine serum and 1% penicillin/streptomycin. On the day prior to compound addition, cells were plated in tissue culture-treated 96 well plates (Corning-3699) at a density of 30,000 cell/well, 20,000 cell/well, 30,000 cell/well for NCI-H358, AGS and SW620 respectively, and allowed for attachment overnight. Diluted compounds were then added in a final concentration of 0.5% DMSO. After 4 hours of incubation, the medium was removed, 100 μL of 4% formaldehyde was added, and the assay plates were incubated at room temperature for 20 minutes. The plates were then washed once with phosphate buffered saline (PBS), and permeabilized with 100 μL of chilled methanol for 10 minutes. Non-specific antibody binding to the plates was blocked using 50 μL 1X BSA blocking buffer (Thermo-37520, 10-fold dilution by Phosphate-Buffered Saline Tween (PBST) for at least 1 hour at room temperature.
(§2) The amount of phosphor-ERK was determined using an antibody specific for phosphorylated form of ERK. Primary antibody (PERK, CST-4370, Cell Signaling Technology) was diluted 1:300 in blocking buffer, with 50 μL aliquoted to each well, and incubated overnight at 4° C. Cells was washed five times for 5 minutes with PBST. Secondary antibody (HRP-linked anti-rabbit IgG, CST-7074, Cell Signaling Technology) was diluted 1:1000 in blocking buffer, and 50 μL was added to each well and incubated 1-2 hrs at room temperature. Cells was washed […] for 5 minutes with PBST, 100 μL TMB ELISA substrate (abcam-ab171523) were added and gently shake for 20 minutes. 50 μL stop solution (abcam-ab 171529) were added, and then read the signal (OD450) by EnVision.
(§3) IC50 was determined by fitting a 4-parameter sigmoidal concentration response model.

Experiment [2] has as its system phosphorylation of ERK, KRAS G12C in NCI-H358 cells. The experiment is described as follows: pERK inhibition assay. Type of experiment: cell-based. Conditions: Homo sapiens, NCI-H358, 4 h. The procedure:
as §1, §2, §3

Experiment [3] concerns phosphorylation of ERK, KRAS G12D in AGS cells. As to the kind of experiment: pERK inhibition assay. Format: cell-based. The note with it: Homo sapiens, AGS, 4 h. How it is done:
as §1, §2, §3

For another experiment, the system named is AGS cells (KRAS G12D). The experiment is described as follows: Cell viability assay (Cell Counting Kit-8, 3-day). Format: cell-based, human. Conditions: Homo sapiens, 72 h, 72 hrs incubation. How it is done:
(§4) The purpose of this cellular assay was to determine the effects of test compounds on the proliferation of human cancer cell lines NCI-H358 (ATCC-CRL5807) cells, AGS (ATCC-CRL-1739) cells, SW620 (ATCC-CCL-227) over a 3-day treatment period by quantifying the amount of NADPH present at endpoint using Cell Counting Kit-8.
(§5) Cells were seeded at 5,000 cells/well (NCI-H358), 2,000 cells/well (AGS) 2,000 cells/well (SW620) in 96-well assay plates (Corning-3699) and incubated overnight. On the day of the assay, diluted compounds were then added in a final concentration of 0.5% DMSO. After 72 hrs incubation, a tenth of the volume of cell counting kit 8 (Dnjindo-CK04) was added into each well. Read the signal (OD450 minus OD650) using EnVision after 2 hrs incubation. IC50 was determined by fitting a 4-parameter sigmoidal concentration response model.

The subject of experiment [4] is NCI-H358 cells (KRAS G12C). The experiment is described as follows: Cell viability assay (Cell Counting Kit-8, 3-day). Format: cell-based, human. Conditions: Homo sapiens, NCI-H358, 72 h, NCI-H358, 72 hrs incubation. How it is done: as §4, §5
Background: Tetrazolium dyes change colour on reduction, which living cells bring about.

For the next experiment, the system named is SW620 cells (KRAS G12V). The experiment is described as follows: Cell viability assay (Cell Counting Kit-8, 3-day). Type of experiment: cell-based, human. Conditions: Homo sapiens, SW-620; SW620, 72 hrs incubation. The procedure:
as §4, §5

As for `CO[C@@H](C)c1ncc(N2CCN(C)CC2)cc1-c1c2c3cc(cc4c3n1CC(F)(F)C4)-c1csc(n1)C[C@H](NC(=O)[C@H]1C[C@@H]1C(F)F)C(=O)N1CCC[C@H](N1)C(=O)OCC(C)(C)C2` (atropisomer, axis not shown; (M)) [Example 31], the IC50 in experiment [1] is 1.6 nM; in experiment [2] it was 2.3 nM; in experiment [3], 19.8 nM; with AGS cells (KRAS G12D) it was 21.8 nM; in experiment [4], 3.1 nM; with SW620 cells (KRAS G12V), less than 0.6 nM.

Consider `CO[C@@H](C)c1ncc(N2CCOCC2)cc1-c1c2c3cc(cc4c3n1CC(C)(C)O4)-c1csc(n1)C[C@H](NC(=O)[C@H]1C[C@@H]1C)C(=O)N1CCC[C@H](N1)C(=O)OCC(C)(C)C2` (atropisomer, axis not shown; (M)) [Example 38, (1S,2S)-N-[(7S,13S)-(20M)-20-[2-[(1S)-1-methoxyethyl]-5-morpholino-3-pyridyl]-17,17,23,23-tetramethyl-8,14-dioxo-15,24-dioxa-4-thia-9,21,30,31-tetrazahexacyclo[23.3.1.1^2,5.1^9,13.0^19,27.0^21,26]hentriaconta-1 (28),2,5 (31),19,25 (29),26-hexaen-7-yl]-2-methyl-cyclopropanecarboxamide], for which the IC50 worked out at 5.5 nM in experiment [1]; 8 nM in experiment [2]; 59.4 nM in experiment [3]; 120 nM with AGS cells (KRAS G12D); 89.4 nM in experiment [4]; 18 nM in the experiment with SW620 cells (KRAS G12V).

In the case of `CO[C@@H](C)c1ncc(N2CCOCC2)cc1-c1c2c3cc(cc4c3n1CCO4)-c1csc(n1)C[C@H](NC(=O)[C@H]1C[C@@H]1c1ccccc1)C(=O)N1CCC[C@H](N1)C(=O)OCC(C)(C)C2` (atropisomer, axis not shown; (M)) [Example 43, (1S,2S)-N-[(7S,13S)-(20M)-20-[2-[(1S)-1-methoxyethyl]-5-morpholino-3-pyridyl]-17,17-dimethyl-8,14-dioxo-15,24-dioxa-4-thia-9,21,30,31-tetrazahexacyclo[23.3.1.1^2,5.1^9,13.0^19,27.0^21,26]hentriaconta-1 (29),2,5 (31), 19,25,27-hexaen-7-yl]-2-phenyl-cyclopropanecarboxamide], the IC50 in experiment [1] came out at 0.3 nM; in experiment [2], 0.7 nM; in experiment [3], 3.8 nM; in the experiment on AGS cells (KRAS G12D) it was 11.9 nM; in experiment [4], 3.6 nM; in the experiment with SW620 cells (KRAS G12V) it was 0.9 nM.

With `CO[C@@H](C)c1ncc(N2CCN(CC(F)(F)F)CC2)cc1-c1c2c3cc(cc4c3n1CCO4)-c1csc(n1)C[C@H](NC(=O)[C@H]1C[C@@H]1c1ccccc1)C(=O)N1CCC[C@H](N1)C(=O)OCC(C)(C)C2` (atropisomer, axis not shown; (M)) [Example 44, (1S,2S)-N-[(7S,13S)-(20M)-20-[2-[(1S)-1-methoxyethyl]-5-[4-(2,2,2-trifluoroethyl)piperazin-1-yl]-3-pyridyl]-17,17-dimethyl-8,14-dioxo-15,24-dioxa-4-thia-9,21,30,31-tetrazahexacyclo[23.3.1.1^2,5.1^9,13.0^19,27.0^21,26]hentriaconta-1 (29),2,5 (31),19,25,27-hexaen-7-yl]-2-phenyl-cyclopropanecarboxamide], the IC50 in experiment [1] was determined as 1.4 nM; in experiment [2] it was 2.1 nM; in experiment [3], 9.1 nM; in the experiment on AGS cells (KRAS G12D) it was 33.9 nM; in experiment [4], 16.8 nM; in the experiment with SW620 cells (KRAS G12V) it was 3.1 nM.

In the case of `CO[C@@H](C)c1ncc(N2CCOCC2)cc1-c1c2c3cc(cc4c3n1CCC4)-c1csc(n1)C[C@H](NC(=O)[C@H]1C[C@@H]1c1ccccc1)C(=O)N1CCC[C@H](N1)C(=O)OCC(C)(C)C2` (atropisomer, axis not shown; (M)) [Example 46, (1S,2S)-N-[(7S,13S)-(20M)-20-[2-[(1S)-1-methoxyethyl]-5-morpholino-3-pyridyl]-17,17-dimethyl-8,14-dioxo-15-oxa-4-thia-9,21,30,31-tetrazahexacyclo[23.3.1.1^2,5.1^9,13.0^19,27.0^21,26]hentriaconta-1 (29),2,5 (31), 19,25,27-hexaen-7-yl]-2-phenyl-cyclopropanecarboxamide], the IC50 in experiment [1] is 1 nM; in experiment [2], 0.9 nM; in experiment [3] it was 9.1 nM; in the experiment on AGS cells (KRAS G12D) it was 32.2 nM; in experiment [4] it was 8.1 nM; with SW620 cells (KRAS G12V) it was 2.4 nM.

Take `CO[C@@H](C)c1ncc(N2CCN(CC(F)(F)F)CC2)cc1-c1c2c3cc(cc4c3n1CC(F)(F)C4)-c1csc(n1)C[C@H](NC(=O)[C@H]1C[C@@H]1C)C(=O)N1CCC[C@H](N1)C(=O)OCC(C)(C)C2` (atropisomer, axis not shown; (M)) [Example 67, (1S,2S)-N-[(7S,13S)-23,23-difluoro-(20M)-20-[2-[(1S)-1-methoxyethyl]-5-[4-(2,2,2-trifluoroethyl)piperazin-1-yl]-3-pyridyl]-17,17-dimethyl-8,14-dioxo-15-oxa-4-thia-9,21,30,31-tetrazahexacyclo[23.3.1.1^2,5.1^9,13.0^19,27.0^21,26]hentriaconta-1 (28),2,5 (31),19,25 (29),26-hexaen-7-yl]-2-methyl-cyclopropanecarboxamide]: the IC50 in experiment [1] came to 3.2 nM; in experiment [2], 2.4 nM; in experiment [3], 31.8 nM.

As for `CO[C@@H](C)c1ncc(N2CCN(C)CC2)cc1-c1c2c3cc(cc4c3n1CCC4)-c1csc(n1)C[C@H](NC(=O)[C@H]1CC[C@H](c3nnnn3C)CC1)C(=O)N1CCC[C@H](N1)C(=O)OCC(C)(C)C2` (atropisomer, axis not shown; (M)) [Example 70, trans-N-[(7S,13S)-(20M)-20-[2-[(1S)-1-methoxyethyl]-5-(4-methylpiperazin-1-yl)-3-pyridyl]-17,17-dimethyl-8,14-dioxo-15-oxa-4-thia-9,21,30,31-tetrazahexacyclo[23.3.1.1^2,5.1^9,13.0^19,27.0^21,26]hentriaconta-1 (29),2,5 (31),19,25,27-hexaen-7-yl]-4-(1-methyltetrazol-5-yl)cyclohexanecarboxamide], the IC50 in experiment [1] is 5.5 nM; in experiment [2], 1.8 nM; in experiment [3], 27.9 nM; in the experiment with AGS cells (KRAS G12D) it was 98.7 nM; in experiment [4], 24.7 nM; in the experiment with SW620 cells (KRAS G12V), 17.9 nM.

Regarding `CO[C@@H](C)c1ncc(N2CCN(C)CC2)cc1-c1c2c3cc(cc4c3n1CC(F)(F)C4)-c1csc(n1)C[C@H](NC(=O)[C@H]1C[C@@H]1c1ccccc1)C(=O)N1CCC[C@H](N1)C(=O)OCC(C)(C)C2` (atropisomer, axis not shown; (M)) [Example 78], the IC50 in experiment [1] is 1.1 nM; in experiment [2], 2 nM; in experiment [3] it was 10.1 nM; in the experiment on AGS cells (KRAS G12D) it was 30.6 nM; in experiment [4], 9.8 nM; in the experiment on SW620 cells (KRAS G12V) it was 2.3 nM.

`CO[C@@H](C)c1ncc(N2CCN(C)CC2)cc1-c1c2c3cc(cc4c3n1CCC4)-c1csc(n1)C[C@H](NC(=O)[C@H]1C[C@@H]1c1ncccn1)C(=O)N1CCC[C@H](N1)C(=O)OCC(C)(C)C2` [Example 80, (1S,2S)-N-[(7S,13S)-(20M)-20-[2-[(1S)-1-methoxyethyl]-5-(4-methylpiperazin-1-yl)-3-pyridyl]-17,17-dimethyl-8,14-dioxo-15-oxa-4-thia-9,21,30,31-tetrazahexacyclo[23.3.1.1^2,5.1^9,13.0^19,27.0^21,26]hentriaconta-1 (28),2,5 (31), 19,25 (29),26-hexaen-7-yl]-2-pyrimidin-2-yl-cyclopropanecarboxamide]: the figures for the IC50 in experiment [1], in experiment [2] and in experiment [3] were 4.2 nM, 5.1 nM and 47.4 nM, respectively.
